Usually Dmax stands for the greatest extent of degradation seen. As a reminder, the DC50 is the concentration giving 50% degradation. Read a low DC50 as degradation at low concentration.

The text below walks through data of US20250206732A1, “COMPOUNDS AND METHODS FOR THE TARGETED DEGRADATION OF KRAS” (Arvinas Operations, Inc., priority 2022, published 2025).

The target in this assay is T1, AsPC-1 HiBiT-KRASG12D (Homo sapiens, UniProt P01116, G12D).
T1 construct: insert the HiBiT tag onto the N-terminus of one or more of the endogenous KRAS alleles; endogenous in cells; host or cells: AsPC-1 (ATCC CRL-1682), CRISPR-Cas9 knock-in clone, one tagged allele
As to the kind of experiment: HiBiT degradation assay (G12D), AsPC-1 HiBiT-KRASG12D cells. Conditions: 24 hours treatment; for Dmax: ASPC1, AsPC-1 HiBiT-KRASG12D cells, maximum degradation observed; for DC50: AsPC-1 HiBiT-KRASG12D cells, HiBiT luminescence. It counts as cell-based. The essentials:
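HiBiT-KRAS abundance was read as Nano-Glo HiBiT lytic luminescence (45 min, room temperature) after a PBS wash. Before that, a 4 h alamar blue fluorescence read, normalized to DMSO, monitored viability. Treatment lasted 24 hours at 37 °C, in triplicate, using AsPC-1 cells with endogenous N-terminally HiBiT-tagged KRAS G12D.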

T1 sequence (P01116 1-188 isoform P01116-2 G12D): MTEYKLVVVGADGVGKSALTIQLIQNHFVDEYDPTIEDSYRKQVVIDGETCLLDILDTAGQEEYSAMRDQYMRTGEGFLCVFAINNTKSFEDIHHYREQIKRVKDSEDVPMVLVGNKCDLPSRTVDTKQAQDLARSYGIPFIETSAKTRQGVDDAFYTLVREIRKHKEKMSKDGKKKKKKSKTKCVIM

As for `CCc1cccc2cc(O)cc(-c3ncc4c(N5CC6CCC(C5)N6)nc(OCCN5CCC(CC6CN(CC(=O)N[C@H](C(=O)N7C[C@H](O)C[C@H]7C(=O)N[C@@H](C)c7ccc(-c8scnc8C)cc7)C(C)(C)C)C6)CC5)nc4c3F)c12` [Compound 273, (2S,4R)-1-[(2S)-2-(2-{3-[(1-{2-[(4-{3,8-diazabicyclo[3.2.1]octan-3-yl}-7-(8-ethyl-3-hydroxynaphthalen-1-yl)-8-fluoropyrido[4,3-d]pyrimidin-2-yl)oxy]ethyl}piperidin-4-yl)methyl]azetidin-1-yl}acetamido)-3,3-dimethylbutanoyl]-4-hydroxy-N-[(1S)-1-[4-(4-methyl-1,3-thiazol-5-yl)phenyl]ethyl]pyrrolidine-2-carboxamide], the Dmax fell in the range of 80 to 100% and the half-maximal degradation concentration (DC50) was under 600 nM.
`CCc1cccc2cc(O)cc(-c3ncc4c(N5CC6CCC(C5)N6)nc(OCCN5CCC(CC6CCN(CC(=O)N[C@H](C(=O)N7C[C@H](O)C[C@H]7C(=O)N[C@@H](C)c7ccc(-c8scnc8C)cc7)C(C)(C)C)CC6)CC5)nc4c3F)c12` [Compound 274, (2S,4R)-1-[(2S)-2-(2-{4-[(1-{2-[(4-{3,8-diazabicyclo[3.2.1]octan-3-yl}-7-(8-ethyl-3-hydroxynaphthalen-1-yl)-8-fluoropyrido[4,3-d]pyrimidin-2-yl)oxy]ethyl}piperidin-4-yl)methyl]piperidin-1-yl}acetamido)-3,3-dimethylbutanoyl]-4-hydroxy-N-[(1S)-1-[4-(4-methyl-1,3-thiazol-5-yl)phenyl]ethyl]pyrrolidine-2-carboxamide] had a Dmax of 60 to 80% and a DC50 of under 600 nM.
On the same counts, the results for `CCc1cccc2cc(O)cc(-c3ncc4c(N5CC6CCC(C5)N6)nc(OCCN5CCC(CC6CN(c7cnc(C(=O)N[C@H](C(=O)N8C[C@H](O)C[C@H]8C(=O)N[C@@H](C)c8ccc(-c9scnc9C)cc8)C(C)(C)C)cn7)C6)CC5)nc4c3F)c12` [Compound 279] are 60 to 80% and under 600 nM.
In turn, `CCc1cccc2cc(O)cc(-c3ncc4c(N5CC6CCC(C5)N6)nc(OC[C@@H]5CC[C@@H](COC(=O)N6CCN(c7cc([C@@H](C(=O)N8C[C@H](O)C[C@H]8C(=O)N[C@@H](C)c8ccc(-c9scnc9C)cc8)C(C)C)on7)C[C@@H]6C)N5C)nc4c3F)c12` [Compound 280, [(2S,5S)-5-[[4-(3,8-diazabicyclo[3.2.1]octan-3-yl)-7-(8-ethyl-3-hydroxy-1-naphthyl)-8-fluoro-pyrido[4,3-d]pyrimidin-2-yl]oxymethyl]-1-methyl-pyrrolidin-2-yl]methyl (2S)-4-[5-[(1S)-1-[(2S,4R)-4-hydroxy-2-[[(1S)-1-[4-(4-methylthiazol-5-yl)phenyl]ethyl]carbamoyl]pyrrolidine-1-carbonyl]-2-methyl-propyl]isoxazol-3-yl]-2-methyl-piperazine-1-carboxylate] had a Dmax of 20 to 60% and a half-maximal degradation concentration (DC50) of 600 to 1000 nM.
The corresponding values for `CCc1cccc2cc(O)cc(-c3ncc4c(N5CCCCCC5)nc(OC[C@]56CCCN5[C@H](COC(=O)N5CCC(Oc7cc([C@@H](C(=O)N8C[C@H](O)C[C@H]8C(=O)N[C@@H](C)c8ccc(-c9scnc9C)cc8)C(C)C)on7)CC5)CC6)nc4c3F)c12` [Compound 282, [(3S,8R)-8-[[4-(azepan-1-yl)-7-(8-ethyl-3-hydroxy-1-naphthyl)-8-fluoro-pyrido[4,3-d]pyrimidin-2-yl]oxymethyl]-1,2,3,5,6,7-hexahydropyrrolizin-3-yl]methyl 4-[5-[(1S)-1-[(2S,4R)-4-hydroxy-2-[[(1S)-1-[4-(4-methylthiazol-5-yl)phenyl]ethyl]carbamoyl]pyrrolidine-1-carbonyl]-2-methyl-propyl]isoxazol-3-yl]oxypiperidine-1-carboxylate] are under 20% and 600 to 1000 nM.
As to `CCc1cccc2cc(O)cc(-c3ncc4c(N5CCCCCC5)nc(OC[C@]56CCCN5[C@H](COC(=O)N5CC7(C5)CN(c5cc([C@H](C(=O)N8C[C@H](O)C[C@H]8C(=O)N[C@@H](C)c8ccc(-c9scnc9C)cc8)C(C)C)on5)C7)CC6)nc4c3F)c12` [Compound 283, [(3S,8R)-8-[[4-(azepan-1-yl)-7-(8-ethyl-3-hydroxy-1-naphthyl)-8-fluoro-pyrido[4,3-d]pyrimidin-2-yl]oxymethyl]-1,2,3,5,6,7-hexahydropyrrolizin-3-yl]methyl 6-[5-[(1R)-1-[(2S,4R)-4-hydroxy-2-[[(1S)-1-[4-(4-methylthiazol-5-yl)phenyl]ethyl]carbamoyl]pyrrolidine-1-carbonyl]-2-methyl-propyl]isoxazol-3-yl]-2,6-diazaspiro[3.3]heptane-2-carboxylate], the Dmax fell in the range of 80 to 100% and the DC50 is under 600 nM.
As for `CCc1cccc2cc(O)cc(-c3ncc4c(N5CCCCCC5)nc(OC[C@]56CCCN5[C@H](COC(=O)N5CC7(C5)CN(c5cc([C@@H](C(=O)N8C[C@H](O)C[C@H]8C(=O)N[C@@H](C)c8ccc(-c9scnc9C)cc8)C(C)C)on5)C7)CC6)nc4c3F)c12` [Compound 284, [(3S,8R)-8-[[4-(azepan-1-yl)-7-(8-ethyl-3-hydroxy-1-naphthyl)-8-fluoro-pyrido[4,3-d]pyrimidin-2-yl]oxymethyl]-1,2,3,5,6,7-hexahydropyrrolizin-3-yl]methyl 6-[5-[(1S)-1-[(2S,4R)-4-hydroxy-2-[[(1S)-1-[4-(4-methylthiazol-5-yl)phenyl]ethyl]carbamoyl]pyrrolidine-1-carbonyl]-2-methyl-propyl]isoxazol-3-yl]-2,6-diazaspiro[3.3]heptane-2-carboxylate], the DC50 was over 3000 nM.
Molecule `Cc1ncsc1-c1ccc([C@H](C)NC(=O)[C@@H]2C[C@@H](O)CN2C(=O)[C@@H](c2cc(OC3CN(C(=O)OC[C@@H]4CC[C@@H](COc5nc(N6CC7CCC(C6)N7)c6cnc(-c7cc(O)cc(Cl)c7C7CC7)c(F)c6n5)N4C)C3)no2)C(C)C)cc1` [Compound 285] returned a Dmax of 80 to 100% and a DC50 of under 600 nM.
The corresponding values for `CCc1cccc2cc(O)cc(-c3ncc4c(N5CCCCCC5)nc(OC[C@]56CCCN5[C@H](COC(=O)N5CCC(Oc7cc([C@H](C(=O)N8C[C@H](O)C[C@H]8C(=O)N[C@@H](C)c8ccc(-c9scnc9C)cc8)C(C)C)on7)CC5)CC6)nc4c3F)c12` [Compound 286, [(3S,8R)-8-[[4-(azepan-1-yl)-7-(8-ethyl-3-hydroxy-1-naphthyl)-8-fluoro-pyrido[4,3-d]pyrimidin-2-yl]oxymethyl]-1,2,3,5,6,7-hexahydropyrrolizin-3-yl]methyl 4-[5-[(1R)-1-[(2S,4R)-4-hydroxy-2-[[(1S)-1-[4-(4-methylthiazol-5-yl)phenyl]ethyl]carbamoyl]pyrrolidine-1-carbonyl]-2-methyl-propyl]isoxazol-3-yl]oxypiperidine-1-carboxylate] are 80 to 100% and under 600 nM.
As to `Cc1ncsc1-c1ccc([C@H](C)NC(=O)[C@@H]2C[C@@H](O)CN2C(=O)[C@H](c2cc(OC3CN(C(=O)OC[C@@H]4CC[C@@H](COc5nc(N6CC7CCC(C6)N7)c6cnc(-c7cc(O)cc(Cl)c7C7CC7)c(F)c6n5)N4C)C3)no2)C(C)C)cc1` [Compound 287], the Dmax was under 20% and the DC50 was 1000 to 3000 nM.
